Measurements taken from ChEMBL document CHEMBL1909640, “Mode of action investigation for the antibacterial cationic anthraquinone analogs” (2011).
The source made the active and inactive calls. The rule behind the calls is not given here.

Legend:
[1] = test system: Escherichia coli; assay: Antibacterial activity against Escherichia coli ATCC 25922 after 12 to 18 hrs by broth dilution method; format: functional
[2] = test system: Staphylococcus aureus; assay: Antibacterial activity against Staphylococcus aureus ATCC 25923 after 12 to 18 hrs by broth dilution method; format: functional
[3] = test system: Escherichia coli; assay: Induction of plasma membrane disruption in Escherichia coli ATCC 25922 at 2 mg/mL after 10 mins by Sytox dye based assay; format: functional, organism-based
[4] = test system: Escherichia coli; assay: Induction of plasma membrane disruption in Escherichia coli ATCC 25922 at 2 mg/mL after 2 hrs by Sytox dye based assay; format: functional, organism-based
[5] = test system: Escherichia coli; assay: Induction of plasma membrane disruption in Escherichia coli ATCC 25922 a 4 ug/mL after 10 mins by Sytox dye based assay; format: functional, organism-based
[6] = test system: Escherichia coli; assay: Induction of plasma membrane disruption in Escherichia coli ATCC 25922 at 4 ug/mL after 2 hrs by Sytox dye based assay; format: functional, organism-based
[7] = test system: Staphylococcus aureus; assay: Induction of plasma membrane disruption in Staphylococcus aureus ATCC 25923 at 8 ug/mL after 10 mins by Sytox dye based assay; format: functional, organism-based
[8] = test system: Staphylococcus aureus; assay: Induction of plasma membrane disruption in Staphylococcus aureus ATCC 25923 at 8 ug/mL after 2 hrs by Sytox dye based assay; format: functional, organism-based
[9] = test system: Staphylococcus aureus; assay: Induction of plasma membrane disruption in Staphylococcus aureus ATCC 25923 at 0.064 ug/mL after 10 mins by Sytox dye based assay; format: functional, organism-based
[10] = test system: Staphylococcus aureus; assay: Induction of plasma membrane disruption in Staphylococcus aureus ATCC 25923 at 0.064 ug/mL after 2 hrs by Sytox dye based assay; format: functional, organism-based
[11] = test system: Escherichia coli; assay: Induction of redox process disruption in Escherichia coli ATCC 25922 at 2 mg/mL after 2 hrs by CTC dye based assay; format: functional, organism-based
[12] = test system: Escherichia coli; assay: Induction of redox process disruption in Escherichia coli ATCC 25922 at 2 mg/mL after 6 hrs by CTC dye based assay; format: functional, organism-based
[13] = test system: Escherichia coli; assay: Induction of redox process disruption in Escherichia coli ATCC 25922 at 4 ug/mL after 2 hrs by CTC dye based assay; format: functional, organism-based
[14] = test system: Escherichia coli; assay: Induction of redox process disruption in Escherichia coli ATCC 25922 at 4 ug/mL after 6 hrs by CTC dye based assay; format: functional, organism-based
[15] = test system: Staphylococcus aureus; assay: Induction of redox process disruption in Staphylococcus aureus ATCC 25923 at 8 ug/mL after 2 hrs by CTC dye based assay; format: functional, organism-based
[16] = test system: Staphylococcus aureus; assay: Induction of redox process disruption in Staphylococcus aureus ATCC 25923 at 8 ug/mL after 6 hrs by CTC dye based assay; format: functional, organism-based
[17] = test system: Staphylococcus aureus; assay: Induction of redox process disruption in Staphylococcus aureus ATCC 25923 at 0.064 ug/mL after 2 hrs by CTC dye based assay; format: functional, organism-based
[18] = test system: Staphylococcus aureus; assay: Induction of redox process disruption in Staphylococcus aureus ATCC 25923 at 0.064 ug/mL after 6 hrs by CTC dye based assay; format: functional, organism-based

Compound | MIC [1] | MIC [2] | Activity [3] | Activity [4] | Activity [5] | Activity [6] | Activity [7] | Activity [8] | Activity [9] | Activity [10] | Activity [11] | Activity [12] | Activity [13] | Activity [14] | Activity [15] | Activity [16] | Activity [17] | Activity [18]
CCCCCCCCCCCCn1n[n+](C)c2c1C(=O)c1ccccc1C2=O.[Cl-] | 16 µg/mL | 0.064 µg/mL | Active | Active | inactive | inactive | inactive | inactive | inactive | inactive | Active | Active | inactive | inactive | Active | Active | inactive | inactive
CCCCCCCCn1n[n+](CC)c2c1C(=O)c1ccccc1C2=O.[Cl-] | ≥ 250 µg/mL | 0.25 µg/mL | Active | Active | inactive | inactive | inactive | inactive | inactive | inactive | Active | Active | inactive | inactive | Active | Active | inactive | inactive
CCCCCCCCCCn1n[n+](C)c2c1C(=O)c1ccccc1C2=O.[Cl-] | 32 µg/mL | 0.032 µg/mL | Active | Active | inactive | inactive | inactive | inactive | inactive | inactive | Active | Active | inactive | inactive | Active | Active | inactive | inactive
CCCCCCCCCCCCCCCCn1n[n+](C)c2c1C(=O)c1ccccc1C2=O.[Cl-] | ≥ 250 µg/mL | 0.25 µg/mL | Active | Active | inactive | inactive | inactive | inactive | inactive | inactive | Active | Active | inactive | inactive | Active | Active | inactive | inactive
CCCCCCCCn1n[n+](C)c2c1C(=O)c1ccccc1C2=O.[Cl-] | 16 µg/mL | 0.032 µg/mL | Active | Active | inactive | inactive | inactive | inactive | inactive | inactive | Active | Active | inactive | inactive | Active | Active | inactive | inactive
Hexadecyltrimethylammonium bromide | – | – | Active | Active | – | – | – | – | – | – | – | – | – | – | – | – | – | –
CCCCCCCCCn1n[n+](C)c2c1C(=O)c1ccccc1C2=O.[Cl-] | 64 µg/mL | 0.032 µg/mL | Active | Active | inactive | inactive | inactive | inactive | inactive | inactive | Active | Active | inactive | inactive | Active | Active | inactive | inactive
CCCCCCCCCCCn1n[n+](C)c2c1C(=O)c1ccccc1C2=O.[Cl-] | 32 µg/mL | 0.25 µg/mL | Active | Active | inactive | inactive | inactive | inactive | inactive | inactive | Active | Active | inactive | inactive | Active | Active | inactive | inactive
